From the NIST ThermoML archive (doi:10.1021/je900596d)

Settings: Vibrating tube method

FC(F)=C(F)C(F)(F)F [hexafluoropropene]
Settings	mass density [kg/m3]
303.28 K, 499 kPa, Fluid (supercritical or subcritical phases)	33.24
303.28 K, 504.3 kPa, Fluid (supercritical or subcritical phases)	33.56
303.28 K, 509.6 kPa, Fluid (supercritical or subcritical phases)	33.97
303.28 K, 514.9 kPa, Fluid (supercritical or subcritical phases)	34.46
303.28 K, 525.4 kPa, Fluid (supercritical or subcritical phases)	35.23
303.28 K, 530.6 kPa, Fluid (supercritical or subcritical phases)	35.69
303.28 K, 535.9 kPa, Fluid (supercritical or subcritical phases)	36.01
303.28 K, 541.1 kPa, Fluid (supercritical or subcritical phases)	36.49
303.28 K, 546.3 kPa, Fluid (supercritical or subcritical phases)	36.92
303.28 K, 551.5 kPa, Fluid (supercritical or subcritical phases)	37.29
303.28 K, 556.7 kPa, Fluid (supercritical or subcritical phases)	37.7
303.28 K, 572.3 kPa, Fluid (supercritical or subcritical phases)	38.97
303.28 K, 577.4 kPa, Fluid (supercritical or subcritical phases)	39.31
303.28 K, 582.5 kPa, Fluid (supercritical or subcritical phases)	39.71
303.28 K, 587.5 kPa, Fluid (supercritical or subcritical phases)	40.14
303.28 K, 597.7 kPa, Fluid (supercritical or subcritical phases)	41.02
303.28 K, 605.4 kPa, Fluid (supercritical or subcritical phases)	41.64
303.28 K, 610.5 kPa, Fluid (supercritical or subcritical phases)	42.03
303.28 K, 615.6 kPa, Fluid (supercritical or subcritical phases)	42.45
303.28 K, 625.6 kPa, Fluid (supercritical or subcritical phases)	43.25
303.28 K, 630.6 kPa, Fluid (supercritical or subcritical phases)	43.67
303.28 K, 635.6 kPa, Fluid (supercritical or subcritical phases)	44.16
303.28 K, 640.7 kPa, Fluid (supercritical or subcritical phases)	44.51
303.28 K, 650.7 kPa, Fluid (supercritical or subcritical phases)	45.35
303.28 K, 655.6 kPa, Fluid (supercritical or subcritical phases)	45.82
303.28 K, 660.6 kPa, Fluid (supercritical or subcritical phases)	46.19
303.28 K, 665.5 kPa, Fluid (supercritical or subcritical phases)	46.57
303.28 K, 670.5 kPa, Fluid (supercritical or subcritical phases)	47.07
303.28 K, 675.4 kPa, Fluid (supercritical or subcritical phases)	47.49
303.28 K, 680.3 kPa, Fluid (supercritical or subcritical phases)	47.87
303.28 K, 685.2 kPa, Fluid (supercritical or subcritical phases)	48.24
303.28 K, 690 kPa, Fluid (supercritical or subcritical phases)	48.67
303.28 K, 694.8 kPa, Fluid (supercritical or subcritical phases)	49.19
303.28 K, 709.3 kPa, Fluid (supercritical or subcritical phases)	50.39
303.28 K, 714.1 kPa, Fluid (supercritical or subcritical phases)	50.86
303.28 K, 718.9 kPa, Fluid (supercritical or subcritical phases)	51.33
303.28 K, 723.7 kPa, Fluid (supercritical or subcritical phases)	51.66
303.28 K, 728.6 kPa, Fluid (supercritical or subcritical phases)	52.22
303.28 K, 734.4 kPa, Fluid (supercritical or subcritical phases)	52.63
303.28 K, 746.1 kPa, Fluid (supercritical or subcritical phases)	53.68
303.28 K, 750.9 kPa, Fluid (supercritical or subcritical phases)	54.09
303.28 K, 756.7 kPa, Fluid (supercritical or subcritical phases)	54.65
303.28 K, 768.4 kPa, Fluid (supercritical or subcritical phases)	55.74
303.28 K, 774.1 kPa, Fluid (supercritical or subcritical phases)	56.3
303.28 K, 779.9 kPa, Fluid (supercritical or subcritical phases)	56.84
303.28 K, 785.6 kPa, Fluid (supercritical or subcritical phases)	57.36
303.28 K, 791.2 kPa, Fluid (supercritical or subcritical phases)	57.85
303.28 K, 796.9 kPa, Fluid (supercritical or subcritical phases)	58.41
303.28 K, 802.6 kPa, Fluid (supercritical or subcritical phases)	58.95
303.28 K, 808.2 kPa, Fluid (supercritical or subcritical phases)	59.58
303.28 K, 813.9 kPa, Fluid (supercritical or subcritical phases)	60.04
303.28 K, 823.6 kPa, Fluid (supercritical or subcritical phases)	61.02
303.28 K, 828.8 kPa, Fluid (supercritical or subcritical phases)	61.46
303.28 K, 838 kPa, Fluid (supercritical or subcritical phases)	62.51
303.28 K, 841.4 kPa, Fluid (supercritical or subcritical phases)	62.82
303.28 K, 842 kPa, Fluid (supercritical or subcritical phases)	62.87
303.28 K, 842.4 kPa, Fluid (supercritical or subcritical phases)	62.98
303.28 K, 843.8 kPa, Fluid (supercritical or subcritical phases)	63.1
303.28 K, 844.7 kPa, Fluid (supercritical or subcritical phases)	63.37
303.28 K, 845.6 kPa, Fluid (supercritical or subcritical phases)	63.62
303.28 K, 846.3 kPa, Fluid (supercritical or subcritical phases)	63.97
303.28 K, 846.8 kPa, Fluid (supercritical or subcritical phases)	64.22
303.28 K, 847.7 kPa, Fluid (supercritical or subcritical phases)	64.87
303.28 K, 848.2 kPa, Fluid (supercritical or subcritical phases)	65.17
303.36 K, 851.7 kPa, Liquid	1288.08
303.36 K, 854.5 kPa, Liquid	1288.17
303.36 K, 856.9 kPa, Liquid	1288.04
303.36 K, 858.9 kPa, Liquid	1288.19
303.36 K, 870 kPa, Liquid	1288.22
303.36 K, 873.5 kPa, Liquid	1288.36
303.36 K, 880.9 kPa, Liquid	1288.43
303.36 K, 885.8 kPa, Liquid	1288.43
303.36 K, 887.7 kPa, Liquid	1288.47
303.36 K, 903 kPa, Liquid	1288.59
303.36 K, 908.2 kPa, Liquid	1288.61
303.36 K, 911.2 kPa, Liquid	1288.78
303.36 K, 918.3 kPa, Liquid	1288.76
303.36 K, 927 kPa, Liquid	1288.93
303.36 K, 935.5 kPa, Liquid	1288.99
303.36 K, 940.8 kPa, Liquid	1288.91
303.36 K, 943.4 kPa, Liquid	1289.1
303.36 K, 946.1 kPa, Liquid	1289.23
303.36 K, 954.6 kPa, Liquid	1289.18
303.36 K, 959.8 kPa, Liquid	1289.24
303.36 K, 965.5 kPa, Liquid	1289.39
303.36 K, 974 kPa, Liquid	1289.46
303.36 K, 983.2 kPa, Liquid	1289.54
303.36 K, 988.8 kPa, Liquid	1289.67
303.36 K, 995.6 kPa, Liquid	1289.74
303.36 K, 1001.4 kPa, Liquid	1289.81
303.36 K, 1006.1 kPa, Liquid	1289.98
303.36 K, 1016.7 kPa, Liquid	1289.99
303.36 K, 1021.3 kPa, Liquid	1290
303.36 K, 1025.8 kPa, Liquid	1290.01
303.36 K, 1030.5 kPa, Liquid	1290.08
303.36 K, 1045.7 kPa, Liquid	1290.29
303.36 K, 1063.4 kPa, Liquid	1290.5
303.36 K, 1068.6 kPa, Liquid	1290.58
303.36 K, 1082.5 kPa, Liquid	1290.71
303.36 K, 1095.4 kPa, Liquid	1290.76
303.36 K, 1106.3 kPa, Liquid	1291.06
303.36 K, 1118.1 kPa, Liquid	1291.22
303.36 K, 1152.1 kPa, Liquid	1291.56
303.36 K, 1163 kPa, Liquid	1291.61
303.36 K, 1174.7 kPa, Liquid	1291.89
303.36 K, 1188.2 kPa, Liquid	1292.04
303.36 K, 1203.3 kPa, Liquid	1292.26
303.36 K, 1216 kPa, Liquid	1292.23
303.36 K, 1235 kPa, Liquid	1292.43
303.36 K, 1249 kPa, Liquid	1292.78
303.36 K, 1261.3 kPa, Liquid	1292.76
303.36 K, 1289 kPa, Liquid	1293.23
303.36 K, 1305.6 kPa, Liquid	1293.27
303.36 K, 1340.2 kPa, Liquid	1293.72
303.36 K, 1361.8 kPa, Liquid	1293.94
303.36 K, 1383.4 kPa, Liquid	1294.19
303.36 K, 1404.6 kPa, Liquid	1294.41
303.36 K, 1448.9 kPa, Liquid	1294.92
303.36 K, 1483.7 kPa, Liquid	1295.38
303.36 K, 1495.8 kPa, Liquid	1295.69
303.36 K, 1517.4 kPa, Liquid	1295.82
303.36 K, 1540.3 kPa, Liquid	1296.17
303.36 K, 1561.5 kPa, Liquid	1296.23
303.36 K, 1582.1 kPa, Liquid	1296.56
303.36 K, 1615.7 kPa, Liquid	1296.92
303.36 K, 1637.2 kPa, Liquid	1297.09
303.36 K, 1659.1 kPa, Liquid	1297.43
303.36 K, 1680.6 kPa, Liquid	1297.48
303.36 K, 1726.5 kPa, Liquid	1298.26
303.36 K, 1771 kPa, Liquid	1298.55
303.36 K, 1793.6 kPa, Liquid	1298.76
303.36 K, 1815.1 kPa, Liquid	1299.1
303.36 K, 1837.5 kPa, Liquid	1299.36
303.36 K, 1861.7 kPa, Liquid	1299.58
